Experimental data as given in patent US20260305610A1, “TRIAZOLE COMPOUND, AND PREPARATION METHOD THEREFOR, HERBICIDAL COMPOSITION AND USE THEREOF” (QINGDAO KINGAGROOT CHEMICAL COMPOUND CO., LTD., priority 2023, published 2026).

How the values were obtained:
Format in all cases: in vivo
[1] = system: weeds; assay: Activity assay of compositions: soil sealing treatment (S), fresh weight inhibition and combined effect (Gowing method); details: 21 d
Description: The required active ingredient B was purchased from a reagent company or a technical material manufacturer or synthesized by a conventional method. The technical materials were all dissolved with acetone solvents and diluted with aqueous solution of 0.1% Tween-80 emulsifier, which should be used immediately after dilution.
• Weeds were cultivated in a controllable sunlight greenhouse at 20 to 30° C., in natural light, and with relative humidity of 57% to 72%. […] The test soil was quantitatively filled to ¾ of the pot, and then watered from the bottom of the pot to completely wet the soil to saturation. The test weed seeds were accelerated to just germinate, and then evenly and quantitatively broadcasted on the soil surface, covered with 0.5-1 cm soil according to the sizes of the seeds, and ready for use 72 hours after sowing.
Each treatment was repeated 4 times. Four pots with 20 weed seeds sowed per pot were treated each time.
The well-sowed test materials were evenly placed on a platform with an area of 0.5 m^2, and foliage spraying was carried out by the 3WP-2000-type walking spray tower at a dosage of 450 kg/ha and a spray pressure of 0.3 MPa. After all the solution was sprayed, the air valve was closed. And 30 seconds later, the door of the spray tower was opened, and the nutritional bowl was taken out. Next, the air valve was opened, and the spray tube was cleaned by spraying 50 ml of water.
A method for investigating absolute numbers was employed. Whole seedlings of survival weeds were cut off along the soil surface with a blade, and the fresh weight of the weeds was weighed using an analytical balance. For dead weeds, the fresh weight thereof was zero.
The investigation was performed 21 days after the treatment for once in total.
The theoretical fresh weight inhibition rate of a mixed combination of each treatment was calculated by the Gowing method (E0=X+Y−X*Y/100). Then compared with the measured inhibition rate (E), the type of the combined effect of the combination of the two on weeds was evaluated, which was a synergistic effect when E−E0>10%; an antagonistic effect when E−E0<−10%; an additional effect when −10%≤E−E0≤10%. An optimal ratio was determined according to factors such as the actual control effects, characteristics of herbicides, balance of the formulation, etc. In the formula, X represents the fresh weight inhibition rate of the active ingredient A in a dosage of P; Y represents the fresh weight inhibition rate of the active ingredient B in a dosage of Q. The statistical results are shown in Table 4.

[2] = system: monocotyledonous and dicotyledonous weeds; assay: Pre-emergence test experiment (weeds); parameters: key: 9: completely dead; 8: growth control rate is greater than or equal to 90% and less than 100%; 7: growth control rate is greater than or equal to 80% and less than 90%; 6: growth control rate is greater than or equal to 70% and less than 80%; growth control rate is greater than or equal to 50% and less than 70%; 4: growth control rate is greater than or equal to 30% and less than 50%; growth control rate is greater than or equal to 20% and less than 30%; growth control rate is greater than or equal to 10% and less than 20%; growth control rate is less than 10%; 0: no effect; details: 30 g a.i./ha
[3] = system: major crops; assay: Pre-emergence test experiment (crops); parameters: key: 9: completely dead; 8: growth control rate is greater than or equal to 90% and less than 100%; 7: growth control rate is greater than or equal to 80% and less than 90%; 6: growth control rate is greater than or equal to 70% and less than 80%; growth control rate is greater than or equal to 50% and less than 70%; 4: growth control rate is greater than or equal to 30% and less than 50%; growth control rate is greater than or equal to 20% and less than 30%; growth control rate is greater than or equal to 10% and less than 20%; growth control rate is less than 10%; 0: no effect; details: 30 g a.i./ha
[4] = Lolium temulentum, B 375 g a.i./ha
[5] = Lolium temulentum, B 750 g a.i./ha
[6] = Ammannia arenaria, B 15 g a.i./ha
[7] = Amaranthus retroflexus, B 15 g a.i./ha
[8] = Amaranthus retroflexus, B 30 g a.i./ha
[9] = Eclipta prostrata, B 150 g a.i./ha
[10] = Lolium multiflorum, B 75 g a.i./ha
[11] = Lolium multiflorum, B 150 g a.i./ha
[12] = Commelina communis, B 30 g a.i./ha

## Cc1ccc(NC(=O)N(C)C)cc1Cl [Chlorotoluron]
[1]; [4]
  Control effect of B applied alone in a corresponding dose (%): 34.3%
[1]; [5]
  Control effect of B applied alone in a corresponding dose (%): 59.3%

## C#CCN1C(=O)C(F)(F)Oc2cc(F)c(-n3c(=O)n(C)c(=S)n(C)c3=O)cc21 [Trifludimoxazin]
[1]; Silene conoidea, B 30 g a.i./ha
  Control effect of B applied alone in a corresponding dose (%): 44.4%
[1]; Silene conoidea, B 60 g a.i./ha
  Control effect of B applied alone in a corresponding dose (%): 66.7%

## CCC[S@@+]([O-])c1c(C(F)(F)F)ccc(C(=O)Nc2nnc(C)o2)c1F
[1]; [6]
  Control effect of B applied alone in a corresponding dose (%): 26.1%
[1]; Ammannia arenaria, B 30 g a.i./ha
  Control effect of B applied alone in a corresponding dose (%): 43.8%

## Cn1nc(C(F)(F)F)c(CS(=O)(=O)C2=NOC(C)(C)C2)c1OC(F)F [Pyroxasulfone]
[1]; Lolium multiflorum, B 30 g a.i./ha
  Control effect of B applied alone in a corresponding dose (%): 40.6%
[1]; Lolium multiflorum, B 60 g a.i./ha
  Control effect of B applied alone in a corresponding dose (%): 62.7%

## CC(C)(C)c1nn(-c2cc(OCC#N)c(Cl)cc2Cl)c(=O)o1 [Oxadiargyl]
[1]; Solanum nigrum, B 45 g a.i./ha
  Control effect of B applied alone in a corresponding dose (%): 51.2%
[1]; Solanum nigrum, B 90 g a.i./ha
  Control effect of B applied alone in a corresponding dose (%): 64.7%

## COCc1cccc(C(O)c2nc(OC)cc(OC)n2)c1NS(=O)(=O)C(F)F (stereo not shown) [Pyrimisulfan]
[1]; Eclipta prostrata, B 7.5 g a.i./ha
  Control effect of B applied alone in a corresponding dose (%): 54.4%
[1]; Eclipta prostrata, B 15 g a.i./ha
  Control effect of B applied alone in a corresponding dose (%): 73.7%

## CC(C)Oc1cc(-n2nc(C(C)(C)C)oc2=O)c(Cl)cc1Cl [Oxadiazon]
[1]; Solanum nigrum, B 30 g a.i./ha
  Control effect of B applied alone in a corresponding dose (%): 45.8%
[1]; Solanum nigrum, B 60 g a.i./ha
  Control effect of B applied alone in a corresponding dose (%): 53.5%

## CS(=O)(=O)c1cc(C(F)(F)F)ccc1C(=O)c1cnoc1C1CC1 [Isoxaflutole]
[1]; [7]
  Control effect of B applied alone in a corresponding dose (%): 36.7%
[1]; [8]
  Control effect of B applied alone in a corresponding dose (%): 50.3%

## CCN(CC)C(=O)C(C)Oc1cccc2ccccc12 (stereo not shown) [Napropamide]
[1]; Descurainia sophia, B 150 g a.i./ha
  Control effect of B applied alone in a corresponding dose (%): 38.6%
[1]; Descurainia sophia, B 300 g a.i./ha
  Control effect of B applied alone in a corresponding dose (%): 55.7%

## CCC(CC)Nc1c([N+](=O)[O-])cc(C)c(C)c1[N+](=O)[O-] [Pendimethalin]
[1]; [9]
  Control effect of B applied alone in a corresponding dose (%): 45.5%
[1]; Eclipta prostrata, B 300 g a.i./ha
  Control effect of B applied alone in a corresponding dose (%): 63.2%

## CN1C[C@H](c2cccc(C(F)(F)F)c2)[C@@H](C(=O)Nc2ccccc2F)C1=O [Tetflupyrolimet]
[1]; Monochoria vaginalis, B 7.5 g a.i./ha
  Control effect of B applied alone in a corresponding dose (%): 43.9%
[1]; Monochoria vaginalis, B 15 g a.i./ha
  Control effect of B applied alone in a corresponding dose (%): 68.1%

## CC1(C)CON(Cc2ccc(Cl)cc2Br)C1=O
[1]; [10]
  Control effect of B applied alone in a corresponding dose (%): 43.7%
[1]; [11]
  Control effect of B applied alone in a corresponding dose (%): 61.0%

## COC(=O)c1csc(C)c1S(=O)(=O)NC(=O)n1nc(OC)n(C)c1=O [Thiencarbazone-methyl]
[1]; Commelina communis, B 15 g a.i./ha
  Control effect of B applied alone in a corresponding dose (%): 45.4%
[1]; [12]
  Control effect of B applied alone in a corresponding dose (%): 56.0%

## COC(=O)CCNC(=O)C(C)Sc1cc(-n2c(=O)cc(C(F)(F)F)n(C)c2=O)c(F)cc1Cl (stereo not shown) [Tiafenacil]
[1]; [12]
  Control effect of B applied alone in a corresponding dose (%): 48.2%
[1]; Commelina communis, B 60 g a.i./ha
  Control effect of B applied alone in a corresponding dose (%): 61.4%

## CS(=O)(=O)c1ccc(C(=O)C2C(=O)CCCC2=O)c(Cl)c1COCC1CCCO1 (stereo not shown) [Tefuryltrione]
[1]; Ammannia arenaria, B 7.5 g a.i./ha
  Control effect of B applied alone in a corresponding dose (%): 32.9%
[1]; [6]
  Control effect of B applied alone in a corresponding dose (%): 55.2%

## CCCOCCN(C(=O)CCl)c1c(CC)cccc1CC [Pretilachlor]
[1]; Eclipta prostrata, B 75 g a.i./ha
  Control effect of B applied alone in a corresponding dose (%): 38.4%
[1]; [9]
  Control effect of B applied alone in a corresponding dose (%): 68.3%

## CCn1ncc(C(=O)c2ccc(S(C)(=O)=O)c(COCC(F)(F)F)c2Cl)c1OC(=O)c1cn(C)nc1C [Fenpyrazone]
[1]; [7]
  Control effect of B applied alone in a corresponding dose (%): 13.5%
[1]; [8]
  Control effect of B applied alone in a corresponding dose (%): 33.7%

## CC(C)c1ccc(NC(=O)N(C)C)cc1 [Isoproturon]
[1]; [4]
  Control effect of B applied alone in a corresponding dose (%): 37.1%
[1]; [5]
  Control effect of B applied alone in a corresponding dose (%): 58.2%

## CC1(C)CON(Cc2ccc(Cl)cc2Cl)C1=O [Bixlozone]
[1]; [10]
  Control effect of B applied alone in a corresponding dose (%): 50.2%
[1]; [11]
  Control effect of B applied alone in a corresponding dose (%): 70.0%

## COCc1ccc(-n2cnc(C(F)(F)F)n2)nc1Oc1ccc(F)c(C(F)(F)F)c1 [Compound 143]
[2]
  Pre-emergence activity level (growth control rate) on Amaranthus retroflexus: 9
  Pre-emergence activity level (growth control rate) on Descurainia sophia: 9
  Pre-emergence activity level (growth control rate) on Digitaria sanguinalis: 8 (growth control rate is greater than or equal to 90% and less than 100%)
  Pre-emergence activity level (growth control rate) on Setaria viridis: 9
  Pre-emergence activity level (growth control rate) on Solanum nigrum: 9
  Pre-emergence activity level (growth control rate) on Veronica: 9
[3]
  Pre-emergence plant damage level (growth control rate) on Corn: 0
  Pre-emergence plant damage level (growth control rate) on Cotton: 0
  Pre-emergence plant damage level (growth control rate) on Soybean: 0

## Cc1ccc(-n2cnc(C(F)(F)F)n2)nc1Oc1ccc(F)c(C(F)(F)F)c1 [Compound 10]
[2]
  Pre-emergence activity level (growth control rate) on Amaranthus retroflexus: 9
  Pre-emergence activity level (growth control rate) on Descurainia sophia: 9
  Pre-emergence activity level (growth control rate) on Digitaria sanguinalis: 9
  Pre-emergence activity level (growth control rate) on Setaria viridis: 9
  Pre-emergence activity level (growth control rate) on Solanum nigrum: 9
  Pre-emergence activity level (growth control rate) on Veronica: 9
[3]
  Pre-emergence plant damage level (growth control rate) on Corn: 0
  Pre-emergence plant damage level (growth control rate) on Cotton: 0
  Pre-emergence plant damage level (growth control rate) on Soybean: 0

## Cc1ccc(-n2cnc(C(F)(F)F)n2)nc1Oc1cccc(F)c1 [Compound 39]
[2]
  Pre-emergence activity level (growth control rate) on Amaranthus retroflexus: 9
  Pre-emergence activity level (growth control rate) on Veronica: 9
[3]
  Pre-emergence plant damage level (growth control rate) on Corn: 0
  Pre-emergence plant damage level (growth control rate) on Cotton: 0
  Pre-emergence plant damage level (growth control rate) on Soybean: 0

## COc1cc(Oc2ccc(F)c(C(F)(F)F)c2)nc(-n2cnc(C(F)(F)F)n2)c1 [Compound 76]
[2]
  Pre-emergence activity level (growth control rate) on Amaranthus retroflexus: 9
  Pre-emergence activity level (growth control rate) on Descurainia sophia: 9
  Pre-emergence activity level (growth control rate) on Digitaria sanguinalis: 9
  Pre-emergence activity level (growth control rate) on Setaria viridis: 8 (growth control rate is greater than or equal to 90% and less than 100%)
  Pre-emergence activity level (growth control rate) on Solanum nigrum: 9
  Pre-emergence activity level (growth control rate) on Veronica: 9
[3]
  Pre-emergence plant damage level (growth control rate) on Corn: 0
  Pre-emergence plant damage level (growth control rate) on Cotton: 0
  Pre-emergence plant damage level (growth control rate) on Soybean: 0

## N#Cc1cc(Oc2cccc(C(F)(F)F)c2)nc(-n2cnc(C(F)(F)F)n2)c1 [Compound 2]
[2]
  Pre-emergence activity level (growth control rate) on Amaranthus retroflexus: 9
  Pre-emergence activity level (growth control rate) on Descurainia sophia: 9
  Pre-emergence activity level (growth control rate) on Digitaria sanguinalis: 8 (growth control rate is greater than or equal to 90% and less than 100%)
  Pre-emergence activity level (growth control rate) on Setaria viridis: 8 (growth control rate is greater than or equal to 90% and less than 100%)
  Pre-emergence activity level (growth control rate) on Solanum nigrum: 9
  Pre-emergence activity level (growth control rate) on Veronica: 9
[3]
  Pre-emergence plant damage level (growth control rate) on Corn: 0
  Pre-emergence plant damage level (growth control rate) on Cotton: 0
  Pre-emergence plant damage level (growth control rate) on Soybean: 0
